Reference: ChEMBL document CHEMBL3774361, “Synthesis and evaluation of thieno[2,3-d]pyrimidin-4(3H)-ones as potential antitubercular agents” (Medchemcomm, 2015)
In brackets after ≈: the same amount, converted by molar mass.

Columns and labels:
[1] = Selectivity index, ratio of GI50 for human THP1 cells to MIC90 for active stage of Mycobacterium bovis BCG ATCC 35743; format: toxicity, cell-based, THP-1; settings: read-out: Selectivity Index
[2] = Selectivity index, ratio of GI50 for human THP1 cells to MIC90 for active stage of Mycobacterium tuberculosis H37Ra; format: toxicity, cell-based, THP-1; settings: read-out: Selectivity Index
[3] = Selectivity index, ratio of GI50 for human HCT116 cells to MIC90 for active stage of Mycobacterium bovis BCG ATCC 35743; format: toxicity, cell-based, HCT-116; settings: read-out: Selectivity Index
[4] = Selectivity index, ratio of GI50 for human HCT116 cells to MIC90 for active stage of Mycobacterium tuberculosis H37Ra; format: toxicity, cell-based, HCT-116; settings: read-out: Selectivity Index
[5] = Selectivity index, ratio of GI50 for human A549 cells to MIC90 for active stage of Mycobacterium bovis BCG ATCC 35743; format: toxicity, cell-based; settings: read-out: Selectivity Index
[6] = Selectivity index, ratio of GI50 for human A549 cells to MIC90 for active stage of Mycobacterium tuberculosis H37Ra; format: toxicity, cell-based; settings: read-out: Selectivity Index
[7] = Selectivity index, ratio of GI50 for human MCF7 cells to MIC90 for active stage of Mycobacterium bovis BCG ATCC 35743; format: toxicity, cell-based; settings: read-out: Selectivity Index
[8] = Selectivity index, ratio of GI50 for human MCF7 cells to MIC90 for active stage of Mycobacterium tuberculosis H37Ra; format: toxicity, cell-based; settings: read-out: Selectivity Index
[9] = Cytotoxicity against human THP1 cells incubated for 1 to 11 days by MTT assay; format: cell-based, THP-1
[10] = Cytotoxicity against human HCT116 cells incubated for 1 to 11 days by MTT assay; format: cell-based, HCT-116
[11] = system: Mycobacterium tuberculosis; assay: Antitubercular activity against active stage of Mycobacterium tuberculosis H37Ra assessed as cell viability after 8 days by XTT reduction menadione assay; format: functional; settings: 192 h
[12] = system: Mycobacterium tuberculosis; assay: Antitubercular activity against dormant stage of Mycobacterium tuberculosis H37Ra assessed as cell viability after 12 days by XTT reduction menadione assay; format: functional; settings: 288 h
[13] = Antibacterial activity against active stage of Mycobacterium bovis BCG ATCC 35743 assessed as cell viability after 8 days by nitrate reductase assay; format: functional, Mycobacterium bovis BCG str. ATCC 35743; settings: Mycobacterium tuberculosis variant bovis BCG, ATCC 35743, 192 h
[14] = Antibacterial activity against dormant stage of Mycobacterium bovis BCG ATCC 35743 assessed as cell viability after 12 days by nitrate reductase assay; format: functional, Mycobacterium bovis BCG str. ATCC 35743; settings: Mycobacterium tuberculosis variant bovis BCG, ATCC 35743, 288 h
[15] = Cytotoxicity against human MCF7 cells incubated for 1 to 11 days by MTT assay; format: cell-based
[16] = (§1) Cytotoxicity against human A549 cells incubated for 1 to 11 days by MTT assay; format: cell-based; settings: A549 cells
[17] = system: A549; assay: as §1; format: cell-based; settings: a549

Structure (SMILES)	selectivity ratio [1]	selectivity ratio [2]	selectivity ratio [3]	selectivity ratio [4]	selectivity ratio [5]	selectivity ratio [6]	selectivity ratio [7]	selectivity ratio [8]	GI50 [9]	GI50 [10]	MIC90 [11]	MIC90 [12]	MIC90 [13]	MIC90 [14]	GI50 [15]	GI50 [16]	GI90 [17]
CCCCCCCc1cc2c(=O)n(CCN=[N+]=[N-])cnc2s1	77	48	77	48	> 77	48	> 77	48	> 100 µg/mL	> 100 µg/mL	6.5 µM	8.33 µg/mL (≈ 26.1 µM)	1.3 µg/mL (≈ 4.07 µM)	2.26 µg/mL (≈ 7.08 µM)	> 100 µg/mL	> 100 µg/mL	
C=CCCCCCCCc1cc2c(=O)n(CCBr)cnc2s1	41	29	18	12	19	13	11	7	> 100 µg/mL	42.4 µg/mL (≈ 111 µM)	3.5 µg/mL	6.31 µg/mL (≈ 16.5 µM)	2.42 µg/mL (≈ 6.31 µM)	1.4 µg/mL (≈ 3.65 µM)	26.1 µg/mL (≈ 68.1 µM)	45.4 µg/mL (≈ 119 µM)	
CCCCCCCCCCc1cc2c(=O)n(CCBr)cnc2s1	44	4	44	4	15	1	9	1	> 100 µg/mL	> 100 µg/mL	24.6 µg/mL	35.2 µg/mL (≈ 88.2 µM)	2.29 µg/mL (≈ 5.73 µM)	3.35 µg/mL (≈ 8.39 µM)	20.5 µg/mL (≈ 51.4 µM)	35.1 µg/mL (≈ 87.8 µM)	
CCCCCc1cc2c(=O)n(CC3CC3)cnc2s1	20	3	20	3	> 20	3	> 20	3	> 100 µg/mL	> 100 µg/mL	38.3 µg/mL	> 50 µg/mL	4.95 µg/mL (≈ 17.9 µM)	8.07 µg/mL (≈ 29.2 µM)	> 100 µg/mL	> 100 µg/mL	
CCCCCCCc1cc2c(=O)n(CC3CC3)cnc2s1	66	2	66	2	> 66	2	> 66	2	> 100 µg/mL	> 100 µg/mL	49.3 µg/mL	49.1 µg/mL (≈ 161 µM)	1.52 µg/mL (≈ 4.99 µM)	2.01 µg/mL (≈ 6.6 µM)	> 100 µg/mL	> 100 µg/mL	
CCCCCCCc1cc2c(=O)n(CC#N)cnc2s1	53	40	53	40	> 53	40	> 53	40	> 100 µg/mL	> 100 µg/mL	8.68 µM	5.2 µg/mL (≈ 18 µM)	1.89 µg/mL (≈ 6.53 µM)	3.02 µg/mL (≈ 10.4 µM)	> 100 µg/mL	> 100 µg/mL	
CC(=O)O[C@H]1C(=O)[C@@]2(C)[C@H]([C@H](OC(=O)c3ccccc3)[C@]3(O)C[C@H](OC(=O)[C@H](O)[C@@H](NC(=O)c4ccccc4)c4ccccc4)C(C)=C1C3(C)C)[C@]1(OC(C)=O)CO[C@@H]1C[C@@H]2O [PACLITAXEL]									0.137 µg/mL (≈ 0.161 µM)	0.026 µg/mL (≈ 0.0304 µM)					0.0048 µg/mL (≈ 0.00562 µM)		
CCCCCCCc1cc2c(=O)n(CCCBr)cnc2s1	16	6	16	6	5	2	3	1	> 100 µg/mL	> 100 µg/mL	17.5 µg/mL	18.5 µg/mL (≈ 49.8 µM)	6.3 µg/mL (≈ 17 µM)	9.37 µg/mL (≈ 25.2 µM)	19.7 µg/mL (≈ 53 µM)	34.1 µg/mL (≈ 92 µM)	
CCCCCCc1cc2c(=O)n(CCN=[N+]=[N-])cnc2s1	25	12	4	2	4	2	> 25	12	> 100 µg/mL	14.7 µg/mL (≈ 48.1 µM)	8.42 µg/mL	11.5 µg/mL (≈ 37.8 µM)	4.08 µg/mL (≈ 13.4 µM)	4.51 µg/mL (≈ 14.8 µM)	> 100 µg/mL	16.2 µg/mL (≈ 52.9 µM)	74.66 µg/mL (≈ 244 µM)
CCCCCCCCCCc1cc2c(=O)n(CCO)cnc2s1	5	15	5	15	> 5	15	> 5	15	> 100 µg/mL	> 100 µg/mL	6.7 µg/mL	15 µg/mL (≈ 44.6 µM)	21.4 µg/mL (≈ 63.7 µM)	23.4 µg/mL (≈ 69.6 µM)	> 100 µg/mL	> 100 µg/mL	
CO[C@H]1/C=C/O[C@@]2(C)Oc3c(C)c(O)c4c(O)c(c(/C=N/N5CCN(C)CC5)c(O)c4c3C2=O)NC(=O)/C(C)=C\C=C\[C@H](C)[C@H](O)[C@@H](C)[C@@H](O)[C@@H](C)[C@H](OC(C)=O)[C@@H]1C [RIFAMPIN]	222	196	222	196		196		196	> 100 µg/mL	> 100 µg/mL	0.51 µg/mL	0.75 µg/mL (≈ 0.911 µM)	0.45 µg/mL (≈ 0.547 µM)	0.81 µg/mL (≈ 0.984 µM)	> 100 µg/mL	> 100 µg/mL	
CCCCCn1cnc2sc(CC)cc2c1=O	10	2	10	2	> 10	2	> 10	2	> 100 µg/mL	> 100 µg/mL	44.1 µg/mL	43.8 µg/mL (≈ 175 µM)	10.1 µg/mL (≈ 40.3 µM)	20.8 µg/mL (≈ 82.9 µM)	> 100 µg/mL	> 100 µg/mL	
CCCCCCc1cc2c(=O)n(CC3CC3)cnc2s1	73	2	13		> 73	2	18	1	> 100 µg/mL	17.6 µg/mL (≈ 60.7 µM)	45.9 µg/mL	42.7 µg/mL (≈ 147 µM)	1.37 µg/mL (≈ 4.72 µM)	2.34 µg/mL (≈ 8.06 µM)	24.8 µg/mL (≈ 85.5 µM)	> 100 µg/mL	
CCCCCc1cc2c(=O)n(CCC)cnc2s1	12	2	12	2	3	1	4	1	> 100 µg/mL	> 100 µg/mL	42.9 µg/mL	36.3 µg/mL (≈ 137 µM)	8.51 µg/mL (≈ 32.2 µM)	9.82 µg/mL (≈ 37.1 µM)	33.8 µg/mL (≈ 128 µM)	27.4 µg/mL (≈ 103 µM)	
